In patent publication US6001597A, “Compositions and methods for producing heterologous polypeptides in Pichia methanolica” (ZymoGenetics, Inc., priority 1998, dated 1999):

Test system: P. mathanolica cells (strain CBS6515, UV-mutagenized)
Assay: Nystatin enrichment for auxotrophic mutants: titering of colony forming units, nystatin-treated versus control cells
Assay type: cell-based, Pichia methanolica
Conditions: 1 mg nystatin added to remainder of 500 ml culture in minimal broth with 5 g/L ammonium sulfate, incubated one additional hour; versus control cells without nystatin
Protocol: The cells are then transferred to a culture medium deficient in assimilable nitrogen so that cellular nitrogen stores are depleted. By "deficient in assimilable nitrogen" it is meant that the medium lacks an amount of nitrogen sufficient to support growth of the cells. Depletion of cellular nitrogen stores will generally require about 12 to 24 hours of incubation, with 16 hours being sufficient under common conditions. Following depletion of nitrogen stores, the cells are cultured in a defined culture medium comprising an inorganic nitrogen source and an amount of an antifungal antibiotic sufficient to kill growing P. mathanolica cells. The antibiotic nystatin (mycostatin) is particularly preferred. Preferred inorganic nitrogen sources are those comprising ammonium ions, such as ammonium sulfate. In general, the medium will contain 10-200 mM ammonium, preferably about 60 mM ammonium. Nystatin is included at a concentration of 0.1 to 100 mg/l, preferably 0.5 to 20 mg/L, more preferably about 2 mg/L ([…]). […] Those skilled in the art will recognize that the actual antibiotic concentration and exposure time required to kill prototrophic cells can be readily determined empirically,and certain adjustments may be necessary to compensate for variations in specific activity between individual batches of antibiotic. […]

C[C@@H]1[C@H](O)[C@@H](C)/C=C/C=C/CC/C=C/C=C/C=C/C=C/C(O[C@H]2O[C@H](C)[C@@H](O)[C@H](N)[C@@H]2O)CC2O[C@](O)(CC(O)C(O)CCC(O)CC(O)CC(O)CC(=O)O[C@H]1C)CC(O)C2C(=O)O (stereo partly shown) [nystatin]
decrease in the number of viable cells (colony forming units), factor: 10^4
